Measured values reported in patent US10517952B2, “Nucleophile-triggered degradable materials and methods of making and using the same” (GEORGIA TECH RESEARCH CORPORATION, priority 2014, dated 2019).

What was measured:
[1] = Degradation of neat PEG-OND hydrogels (inversion test, time-lapse photography); type: physicochemical
Procedure: Degradation rates of the PEG-OND hydrogels in the absence of swelling buffer varied with temperature and with the identity of OND used to form the gel. […] In comparison, gels formed using 7b were stable for more than 60 hours at 37° C., and approximately 13 hours at 50° C.
Three 500 μL 3.5 wt % hydrogels were formed with bis-ONDs 7a and 7b, and bis-EONB 8, respectively, in 2 mL vials with caps. The sealed vials were incubated in an oil bath maintained at 50° C. The samples were periodically removed from heat and the vials were inverted to determine if the gel was still intact, or whether the sample was a free-flowing liquid, as described in the main text. The gel formed between 4-PEG-SH and bis-EONB 8 in FIG. 9 was removed from heat after 5 days, and stored at room temperature in a sealed vial. The hydrogel is still intact at the time of writing (5 days at 50° C. followed by >1 year at room temperature). The inversion test was routinely used in all stability experiments to verify hydrogel integrity during incubation.
In order to observe reverse gelation upon prolonged heating of neat hydrogels, time-lapse photography was carried out. Briefly, 600 μL hydrogels comprised of 3.5 wt % 4-PEG-SH+bis-OND/EONB (7a, 7b, and 8, respectively) in pH 7.4 100 mM potassium phosphate buffer containing 7% DMSO (v/v) were formed in glass culture tubes and allowed to set for 15 minutes. A glass bead (˜160 mg, stained with blue Sharpie-brand marker to improve visibility) was placed carefully on top of each gel, and a drop of silicon oil was added to prevent evaporation at the surface of the gels. The tubes were sealed with lab parafilm and incubated in a 50° C. oil bath. Photos were collected every 2 minutes for ˜22 hours using Chronolapse software (v.1.0.4) and a Creative Labs webcam. Photographs were compiled in chronological order using iMovie software, with each photo occupying one 0.1 s frame. The resulting video is available as S1 Video, mentioned above.

[2] = Equilibrium swelling, gel fraction and Mc (Flory-Rehner) of PEG-OND hydrogels; type: physicochemical; conditions: for Mc (apparent molecular weight between elastic crosslinks): calculated with the Flory-Rehner equation from swelling results; for Gel Fraction: mass of dry residue post-swelling/input mass of OND and 4-PEG-SH; for Equilibrium Swelling Ratio: mass post-swelling/mass pre-swelling, deionized water, 4° C., 24 hours, n = 3 gels
Procedure: The swelling of the PEG-OND hydrogels in deionized water was measured at 4° C. to prevent significant fragmentation during the experiment. […] An independent experiment measuring soluble fraction thiol content yielded results complementing those obtained gravimetrically (Table S3, and related discussion below). With the knowledge that small molecules can readily permeate swollen PEG-OND hydrogels (see below), detecting and modifying residual thiols in gels prepared from divalent linkers 7a and 8 by swelling in the presence of a fluorogenic OND derivative was attempted (FIG. 15, and related discussion below).
200 μL gels were prepared in pH 7.4 100 mM phosphate buffered saline containing 7% DMSO with 3.5 wt % 4-PEG-SH and the corresponding bis-, tris-, and tetra-ONDs to provide a 1:1 thiol to electrophile ratio, and allowed to cure for 20 minutes at room temperature. The mass of the gels after curing was recorded (Meq) before suspending in 5.5 mL of water. The hydrogels were stored at 4° C. during swelling to prevent significant degradation of the network during the experiment. The increase in mass of the gels was monitored periodically by decanting and blotting the gel gently with a kimwipe to remove excess water before weighing. After 24 hours swelling, when swelling had stabilized, the mass of the gel was recorded (Meq). The equilibrium mass swelling ratio was then determined using the following relationship:
After weighing equilibrium-swelled gels to determine equilibrium mass swelling ratio, the gels were freeze-dried and the residual mass was weighed (Mres). It is expected that buffer salts present in the sample when it was formed were removed by the multiple changes of swelling solvent (pure water). The mass of the remaining residue was compared to the input mass (Min) of 4-PEG-SH macromer and OND-based linker. The ratio of the residual mass and the input mass provides the fraction of material by mass incorporated into the hydrogel network (gel fraction), as shown in the following equation: […]
The apparent molecular weight between elastically-productive crosslinks (Mc) was determined from equilibrium swelling data, collected as described in section VII.1 and applying a modified form of the Flory-Rehner equation for networks formed under dilute conditions:
[formula] where Mn is the number average molecular weight for the polymeric macromer (10,000 g/mol), v is the specific volume of the polymer ([…] for PEG) V1 is the molar volume of solvent used for swelling ([…] for water), χ is the polymer-interaction parameter (0.43 for PEG-H2O and assumed constant for the described experiments). V2, and V2, are the volume fraction of polymer in the equilibrium swollen gel and the relaxed gel after curing, respectively, and are calculated as follows:
[formula] where qw is the weight swelling ratio after equilibrium swelling, qF is the weight swelling ratio after curing, ρp is the density of the polymer (1.12 g/cm^3 for PEG), ρwater=ρcure solvent is the density of swelling solvent and solvent during gel formation (1.00 g/cm^3 for water). The weight swelling ratios qw and qF are determined from data gathered in equilibrium swelling experiments using the following relationships:
[formula] where ms is the mass of the gel after equilibrium swelling, mc is the mass of the gel after curing, and md is the mass of the dried gel, or input mass of polymer and crosslinkers.
Using the formulae above, masses of hydrogel samples recorded after equilibrium swelling, curing, and drying were applied to estimate the apparent molecular weight between crosslinks, which are summarized in Table 1 of the main text. The experimentally observed Mc values for gels formed using divalent OND linkers was lower than theoretical ideal value Mc,ideal. This can be explained by the fact that the Mc,ideal values calculated for these gels (entries 1-5 of Table S1) are greater than the entanglement molecular weight for polyethylene glycol (˜4,400 g/mol). […]

## COC(=O)C1=C(C(=O)OC)C2(CNC(=O)CCCC(=O)NCC34C=CC(O3)C(C(=O)OC)=C4C(=O)OC)C=CC1O2 [Linker 7a, Tetramethyl 1,1′-((glutaroylbis(azanediyl))bis(methylene))bis(7-oxabicyclo[2.2.1]hepta-2,5-diene-2,3-dicarboxylate)]
[1]; neat gel, 50° C.
  Gel integrity on extended heating (inversion test): collapsed
[1]; neat gel, no swelling buffer, 4° C.
  Gel stability by inversion test: stable for more than two weeks
[1]; neat gel, no swelling buffer, 37° C.
  Time gel is stable / collapses (inversion test): 12 h
[1]; neat gel, no swelling buffer, 50° C.
  Time gel is stable / collapses (inversion test): ≤ 3 h
[2]
  Mc (apparent molecular weight between elastic crosslinks): 4080 ± 57 g/mol
  Gel Fraction: 0.91 ± 0.03
  Equilibrium Swelling Ratio: 1.7 ± 0.04

## COC(=O)C1=C(C(=O)OC)C2(CNC(=O)CCCC(=O)NCC34OC(C(C(=O)OC)=C3C(=O)OC)C3OC34)OC1C1OC12 (centres unmarked) [Linker 8, Tetramethyl 1,1′-((glutaroylbis(azanediyl))bis(methylene))bis(3,8-dioxatricyclo[3.2.1.0^2,4]oct-6-ene-6,7-dicarboxylate)]
[1]
  Inversion test for hydrogel degradation (FIG. 1B): stable indefinitely
[1]; 5 days at 50° C. followed by >1 year at room temperature
  Long-term gel integrity: still intact
[1]; neat gel, 50° C.
  Gel integrity on extended heating (inversion test): remained intact
[1]; neat gel, heating (50° C.)
  Gel stability by time-lapse photography, gel supporting a glass bead: remained intact
[2]
  Mc (apparent molecular weight between elastic crosslinks): 3900 ± 93 g/mol
  Gel Fraction: 0.97 ± 0.01
  Equilibrium Swelling Ratio: 1.60 ± 0.10
